Assay results reported in patent publication US9260429B2, “Pyrido[3,4-B]indoles and methods of use” (Medivation Technologies, Inc., priority 2008, dated 2016).

Key:
[1] = molecular target: T1, human recombinant histamine H1 receptor (Homo sapiens, UniProt P35367); assay: Histamine H1 radioligand binding ([3H]Pyrilamine); details: 1 μM; read-out: Binding data (Percentage Inhibition) Histamine Binding (1 μM) H1
T1 construct: expressed in transfected cells; host or cells: CHO cells
Experimental: To evaluate in radioligand binding assays the activity of compounds of the invention, human recombinant histamine H1 receptor expressed in Chinese hamster ovary (CHO) cells (De Backer, M. D. et al., Biochem. Biophys. Res. Comm. 197(3):1601, 1993) in a modified Tris-HCl buffer (50 mM Tris-HCl, pH 7.4, 2 mM MgCl2, 100 mM NaCl, 250 mM Sucrose) was used. Compounds of the invention were incubated with 1.2 nM [^3H]Pyrilamine for 180 minutes at 25° C. Non-specific binding was estimated in the presence of 1 μM pyrilamine. Receptor proteins were filtered and washed, the filters were then counted to determine [^3H]Pyrilamine specifically bound. […] Biochemical assay results are presented as the percent inhibition of specific binding in Table 3.

[2] = molecular target: T2, human recombinant histamine H2 receptor (Homo sapiens, UniProt P25021); assay: Histamine H2 radioligand binding ([125I]Aminopotentidine); details: 1 μM; inhibition of specific [125I]Aminopotentidine binding; read-out: Binding data (Percentage Inhibition) Histamine Binding (1 μM) H2
T2 construct: expressed in transfected cells; host or cells: CHO-K1 cells
T2 sequence (P25021 whole entry): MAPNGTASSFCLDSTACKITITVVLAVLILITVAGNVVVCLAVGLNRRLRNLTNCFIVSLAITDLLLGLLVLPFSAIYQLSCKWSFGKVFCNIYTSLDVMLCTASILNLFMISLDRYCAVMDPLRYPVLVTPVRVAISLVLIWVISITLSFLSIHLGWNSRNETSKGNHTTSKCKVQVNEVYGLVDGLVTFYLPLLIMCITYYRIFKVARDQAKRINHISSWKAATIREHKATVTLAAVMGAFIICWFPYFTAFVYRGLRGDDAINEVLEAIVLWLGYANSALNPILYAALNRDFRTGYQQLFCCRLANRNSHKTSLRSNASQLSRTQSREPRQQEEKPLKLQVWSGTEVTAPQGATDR
Experimental: To evaluate in radioligand binding assays the activity of compounds of the invention, human recombinant histamine H2 receptor expressed in Chinese hamster ovary (CHO) K1 cells (Ruat, M., Proc. Natl. Acad. Sci. USA. 87(5):1658, 1990) in a 50 mM Phosphate buffer, pH 7.4 was used. Compounds of the invention were incubated with 0.1 nM [^125I]Aminopotentidine for 120 minutes at 25° C. Non-specific binding was estimated in the presence of 3 μM Tiotidine. Receptor proteins were filtered and washed, the filters were then counted to determine [^125I]Aminopotentidine specifically bound. Compounds were screened at 1 μM or lower, using 1% DMSO as vehicle. Biochemical assay results are presented as the percent inhibition of specific binding in Table 3.

[3] = molecular target: T3, human recombinant dopamine D2L receptor (Homo sapiens, UniProt P14416); assay: Dopamine D2L radioligand binding ([3H]Spiperone); details: 2 h, 1 μM ligand conc.; read-out: Percent Inhibition of ligand binding Dopamine (1 μM ligand conc.) D2L
T3 construct: expressed in transfected cells; host or cells: CHO cells
T3 sequence (P14416 whole entry): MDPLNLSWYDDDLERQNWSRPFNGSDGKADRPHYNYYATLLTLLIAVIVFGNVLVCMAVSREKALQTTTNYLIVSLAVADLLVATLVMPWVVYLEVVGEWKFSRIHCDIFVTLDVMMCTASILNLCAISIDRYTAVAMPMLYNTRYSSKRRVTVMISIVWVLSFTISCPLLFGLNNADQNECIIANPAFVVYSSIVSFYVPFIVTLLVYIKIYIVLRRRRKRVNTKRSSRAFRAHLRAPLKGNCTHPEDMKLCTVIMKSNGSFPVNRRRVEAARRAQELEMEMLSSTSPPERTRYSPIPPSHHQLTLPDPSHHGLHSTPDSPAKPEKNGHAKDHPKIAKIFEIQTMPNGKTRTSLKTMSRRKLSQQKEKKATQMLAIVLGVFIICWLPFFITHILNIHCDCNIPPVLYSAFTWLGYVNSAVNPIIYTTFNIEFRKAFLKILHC
Experimental: To evaluate in radioligand binding assays the activity of compounds of the invention, human recombinant dopamine D2L receptor expressed in Chinese hamster ovary (CHO) cells (Grandy, D. K. et al. Proc. Natl. Acad. Sci. USA. 86:9762, 1989; Hayes, G. et al., Mol. Endocrinol. 6:920, 1992) in a modified Tris-HCl buffer (50 mM Tris-HCl, pH 7.4, 1.4 mM Ascorbic Acid, 0.001% BSA, 150 mM NaCl) was used. Compounds of the invention were incubated with 0.16 nM [^3H]Spiperone for 120 minutes at 25° C. Non-specific binding was estimated in the presence of […] Haloperidol. Receptor proteins were filtered and washed, the filters were then counted to determine [^3H]Spiperone specifically bound. Compounds were screened at 1 μM or lower, using 1% DMSO as vehicle. Biochemical assay results are presented as the percent inhibition of specific binding in Table 4.

[4] = molecular target: T4, human recombinant serotonin (5-Hydroxytryptamine) 5-HT2A receptor (Homo sapiens, UniProt P28223); assay: Serotonin 5-HT2A radioligand binding ([3H]Ketanserin); details: 1 h; read-out: Percent Inhibition of ligand binding Serotonin (1 μM ligand concentration) 5-HT2A
T4 construct: expressed in transfected cells; host or cells: CHO-K1 cells
T4 sequence (P28223 whole entry): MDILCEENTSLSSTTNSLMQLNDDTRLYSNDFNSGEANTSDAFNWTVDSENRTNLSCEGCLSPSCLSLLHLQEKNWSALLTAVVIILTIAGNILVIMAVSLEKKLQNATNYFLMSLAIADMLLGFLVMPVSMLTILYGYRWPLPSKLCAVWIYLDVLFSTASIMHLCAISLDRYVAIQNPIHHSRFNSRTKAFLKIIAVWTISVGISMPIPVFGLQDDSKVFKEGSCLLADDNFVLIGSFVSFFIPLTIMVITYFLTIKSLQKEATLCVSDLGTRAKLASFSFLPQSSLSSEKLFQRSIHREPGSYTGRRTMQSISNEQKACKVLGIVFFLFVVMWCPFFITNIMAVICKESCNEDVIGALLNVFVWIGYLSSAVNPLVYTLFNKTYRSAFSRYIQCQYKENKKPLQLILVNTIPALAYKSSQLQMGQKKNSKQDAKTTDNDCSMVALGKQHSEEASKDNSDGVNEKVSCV
Experimental: To evaluate in radioligand binding assays the activity of compounds of the invention, human recombinant serotonin (5-Hydroxytryptamine) 5-HT2A receptor expressed in Chinese hamster ovary (CHO-K1) cells (Bonhaus, D. W. et al. Br. J. Pharmacol. 115:622, 1995; Saucier, C. and Albert, P. R., J. Neurochem. 68:1998, 1997) in a 50 mM Tris-HCl buffer, pH 7.4, was used. Compounds of the invention were incubated with 0.5 nM [^3H]Ketanserin for 60 minutes at 25° C. Non-specific binding was estimated in the presence of 1 μM Mianserin. Receptor proteins were filtered and washed, the filters were then counted to determine [^3H]Ketanserin specifically bound. Compounds were screened at 1 μM or lower, using 1% DMSO as vehicle. Biochemical assay results are presented as the percent inhibition of specific binding in Table 5.

[5] = molecular target: T5, human recombinant serotonin (5-Hydroxytryptamine) 5-HT2C receptor (Homo sapiens, UniProt P28335); assay: Serotonin 5-HT2C radioligand binding ([3H]Mesulergine); details: 1 h; read-out: Percent Inhibition of ligand binding Serotonin (1 μM ligand concentration) 5-HT2C
T5 construct: expressed in transfected cells; host or cells: CHO-K1 cells
T5 sequence (P28335 33-458): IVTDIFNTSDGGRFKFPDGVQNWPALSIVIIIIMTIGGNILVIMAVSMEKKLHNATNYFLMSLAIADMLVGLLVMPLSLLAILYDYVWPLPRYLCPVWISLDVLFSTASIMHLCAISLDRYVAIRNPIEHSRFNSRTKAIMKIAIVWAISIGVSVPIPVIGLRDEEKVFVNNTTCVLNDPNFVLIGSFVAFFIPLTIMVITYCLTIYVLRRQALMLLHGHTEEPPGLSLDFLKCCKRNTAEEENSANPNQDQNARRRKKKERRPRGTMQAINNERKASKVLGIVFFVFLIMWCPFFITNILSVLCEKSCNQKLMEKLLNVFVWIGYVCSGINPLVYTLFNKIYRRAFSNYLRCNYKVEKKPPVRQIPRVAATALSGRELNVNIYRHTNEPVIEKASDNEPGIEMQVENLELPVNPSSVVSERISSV
Experimental: Compounds of the invention were incubated with 1 nM [^3H]Mesulergine for 60 minutes at 25° C. Non-specific binding was estimated in the presence of 1 μM Mianserin. Receptor proteins were filtered and washed, the filters were then counted to determine [^3H]Mesulergine specifically bound. […] Biochemical assay results are presented as the percent inhibition of specific binding in Table 5.

[6] = molecular target: T6, human recombinant serotonin (5-Hydroxytryptamine) 5-HT6 receptor (Homo sapiens, UniProt P50406); assay: Serotonin 5-HT6 radioligand binding ([3H]LSD); details: 2 h; read-out: Percent Inhibition of ligand binding Serotonin (1 μM ligand concentration) 5-HT6
T6 construct: expressed in transfected cells; host or cells: human HeLa cells
T6 sequence (P50406 whole entry): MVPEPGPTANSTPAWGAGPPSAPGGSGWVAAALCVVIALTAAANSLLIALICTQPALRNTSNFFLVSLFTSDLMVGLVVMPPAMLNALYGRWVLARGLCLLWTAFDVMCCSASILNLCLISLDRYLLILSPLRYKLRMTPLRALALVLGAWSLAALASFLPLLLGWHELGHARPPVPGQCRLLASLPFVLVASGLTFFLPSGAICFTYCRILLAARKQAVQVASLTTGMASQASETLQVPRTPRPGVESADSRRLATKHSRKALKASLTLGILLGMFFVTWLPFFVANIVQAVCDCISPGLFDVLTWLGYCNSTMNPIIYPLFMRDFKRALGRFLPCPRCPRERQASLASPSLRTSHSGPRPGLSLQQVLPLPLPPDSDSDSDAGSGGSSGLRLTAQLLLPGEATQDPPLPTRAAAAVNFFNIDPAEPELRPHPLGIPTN
Experimental: To evaluate in radioligand binding assays the activity of compounds of the invention, human recombinant serotonin (5-Hydroxytryptamine) 5-HT6 receptor expressed in human HeLa cells (Monsma, F. J. Jr. et al., Mol. Pharmacol. 43:320, 1993) in a modified Tris-HCl buffer (50 mM Tris-HCl, pH 7.4, 150 mM NaCl, 2 mM Ascorbic Acid, 0.001% BSA) was used. Compounds of the invention were incubated with 1.5 nM [3H]Lysergic acid diethylamide (LSD) for 120 minutes at 37° C. Non-specific binding was estimated in the presence of […] Serotonin (5-HT). Receptor proteins were filtered and washed, the filters were then counted to determine [3H]LSD specifically bound. Compounds were screened at 1 μM or lower, using 1% DMSO as vehicle. Biochemical assay results are presented as the percent inhibition of specific binding in Table 5.

[7] = molecular target: T7, human recombinant serotonin (5-Hydroxytryptamine) 5-HT7 receptor (Homo sapiens, UniProt P34969); assay: Serotonin 5-HT7 radioligand binding ([3H]LSD); details: 2 h; read-out: Percent Inhibition of ligand binding Serotonin (1 μM ligand concentration) 5-HT7
T7 construct: expressed in transfected cells; host or cells: CHO cells
T7 sequence (P34969 whole entry): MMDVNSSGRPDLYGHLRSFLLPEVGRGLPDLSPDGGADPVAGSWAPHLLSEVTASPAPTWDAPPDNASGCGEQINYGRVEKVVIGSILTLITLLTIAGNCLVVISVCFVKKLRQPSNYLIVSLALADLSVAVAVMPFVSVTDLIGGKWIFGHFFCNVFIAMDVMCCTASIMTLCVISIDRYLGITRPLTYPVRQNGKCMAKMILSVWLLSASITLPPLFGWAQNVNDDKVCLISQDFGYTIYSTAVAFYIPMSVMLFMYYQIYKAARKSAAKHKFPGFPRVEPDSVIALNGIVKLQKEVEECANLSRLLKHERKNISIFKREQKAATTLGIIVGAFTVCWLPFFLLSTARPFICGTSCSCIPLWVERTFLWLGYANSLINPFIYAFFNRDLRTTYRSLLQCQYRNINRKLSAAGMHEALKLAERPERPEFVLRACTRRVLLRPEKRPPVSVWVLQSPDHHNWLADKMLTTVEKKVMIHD
Experimental: To evaluate in radioligand binding assays the activity of compounds of the invention, human recombinant serotonin (5-Hydroxytryptamine) 5-HT7 receptor expressed in Chinese hamster ovary (CHO) cells (Roth, B. L. et al., J. Pharmacol. Exp. Ther. 268:1403, 1994; Shen, Y. et al., J. Biol. Chem. 268:18200, 1993) in a modified Tris-HCl buffer (50 mM Tris-HCl, pH 7.4, 10 mM MgCl2, 0.5 mM EDTA) was used. Compounds of invention were incubated with 5.5 nM [^3H]Lysergic acid diethylamide (LSD) for 2 hours at 25° C. Non-specific binding was estimated in the presence of […] Serotonin (5-HT). Receptor proteins were filtered and washed, the filters were then counted to determine [^3H]LSD specifically bound. Compounds were screened at 1 μM or lower, using 1% DMSO as vehicle. Biochemical assay results are presented as the percent inhibition of specific binding in Table 5.

[8] = test system: brain cells (neurons); details: preclinical models of Alzheimer's disease and Huntington's disease; cited from earlier work
[9] = test system: cells treated with ionomycin; details: after treatment with the cell toxin ionomycin; dose dependent; cited from earlier work
[10] = test system: neuronal cells; details: cited from earlier work

T1 sequence (P35367 whole entry): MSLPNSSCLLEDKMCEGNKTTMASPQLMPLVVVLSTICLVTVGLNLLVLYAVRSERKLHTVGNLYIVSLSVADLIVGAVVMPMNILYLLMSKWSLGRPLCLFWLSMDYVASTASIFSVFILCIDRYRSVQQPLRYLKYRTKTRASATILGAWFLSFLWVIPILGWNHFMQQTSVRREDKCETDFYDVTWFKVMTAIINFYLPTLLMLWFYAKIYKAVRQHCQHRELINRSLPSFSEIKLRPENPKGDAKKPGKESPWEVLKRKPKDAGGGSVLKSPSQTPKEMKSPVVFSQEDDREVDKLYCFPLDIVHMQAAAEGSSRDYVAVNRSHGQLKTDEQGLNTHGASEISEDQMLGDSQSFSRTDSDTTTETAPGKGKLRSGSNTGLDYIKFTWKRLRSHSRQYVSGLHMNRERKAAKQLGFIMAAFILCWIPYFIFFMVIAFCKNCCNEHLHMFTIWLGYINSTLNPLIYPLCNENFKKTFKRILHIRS

Compound | inhibition at 1 µM [1] [%] | inhibition at 1 µM [2] [%] | inhibition at 1 µM [3] [%] | inhibition at 1 µM [4] [%] | inhibition at 1 µM [5] [%] | inhibition at 1 µM [6] [%] | inhibition at 1 µM [7] [%] | death of brain cells (neurons) [8] | mitochondrial function [9] | number of surviving cells [9] | neurite outgrowth and neurogenesis [10]
C/C(=C\n1c2c(c3cc(C)ccc31)CCN(C)C2C)c1ccc(Cl)cc1Cl (centres unmarked) [Compound 178] | 44 | 54 | 3 | 97 | 101 | 25 | 59 | – | – | – | –
Cc1ccc2c(c1)c1c(n2CCc2ccc(C)nc2)CCN(C)C1 [Dimebon, dimebon] | – | – | – | – | – | – | – | inhibit the death of brain cells (neurons) | improved mitochondrial function | increased the number of surviving cells | promote neurite outgrowth and neurogenesis
